In patent publication US6333330A, “Pyrazolopyrimidinone CGMP PDE5 inhibitors for the treatment of sexual dysfunction” (Pfizer Inc., priority 1998, dated 2001):

Tested on: cGMP PDE5
Experiment: In vitro PDE inhibitory activity against cGMP PDE5 (IC50)
Assay type: biochemical
Settings: table of Examples, read-out: IC50 (in vitro activities as inhibitors of cGMP PDE5)
Experimental: In vitro PDE inhibitory activities against cyclic guanosine 3', 5'-monophosphate (cGMP) and cyclic adenosine 3',5'-monophosphate (cAMP) phosphodiesterases were determined by measurement of their IC50 values (the concentration of compound required for 50% inhibition of enzyme activity).
The required PDE enzymes were isolated from a variety of sources, including human corpus cavernosum, human and rabbit platelets, human cardiac ventricle, human skeletal muscle and bovine retina, essentially by the method of W. J. Thompson and M. M. Appleman (Biochem., 1971, 10, 311). In particular, the cGMP-specific PDE (PDE5) and the cGMP-inhibited cAMP PDE (PDE3) were obtained from human corpus cavernosum tissue, human platelets or rabbit platelets; the cGMP-stimulated PDE (PDE2) was obtained from human corpus cavernosum; the calcium/calmodulin (Ca/CAM)-dependent PDE (PDE1) from human cardiac ventricle; the cAMP-specific PDE (PDE4) from human skeletal is muscle; and the photoreceptor PDE (PDE6) from bovine retina.
Assays were performed using a modification of the "batch" method of W. J. Thompson et al. (Biochem., 1979, 18, 5228).

SMILES	IC50 [nM]
CCCOc1ccc(S(=O)(=O)N2CCN(CCO)CC2)cc1-c1nc2c(C(N)=O)nn(Cc3ccccn3)c2c(=O)[nH]1 [Example 5]	2.8
CCOc1ncc(S(=O)(=O)N2CCN(CC)CC2)cc1-c1nc2c(-c3cccnc3)n(Cc3ncccn3)nc2c(=O)[nH]1 [Example 42]	2.26
CCN1CCN(S(=O)(=O)c2cnc(OCCOC)c(-c3nc4c(C(N)=O)nn(Cc5ccccn5)c4c(=O)[nH]3)c2)CC1 [Example 33, 5-[5-(4-Ethylpiperazin-1-ylsulphonyl)-2-(2-methoxyethoxy)pyridin-3-yl]-7-oxo-1-(pyridin-2-yl)methyl-1,6-dihydro-1H-pyrazolo[4,3-d]pyrimidine-3-carboxamide]	2.8
CCOc1ccc(S(=O)(=O)N2CCN(C)CC2)cc1-c1nc2c(C(=O)NC)nn(Cc3ccccc3)c2c(=O)[nH]1 [Example 19, 1-Benzyl-5-[2-ethoxy-5-(4-methylpiperazin-1-ylsulphonyl)]-7-oxo-1,6-dihydro-1H-pyrazolo[4,3-d]pyrimidine-3-N-methylcarboxamide]	3.4
CCCOc1ccc(S(=O)(=O)N2CCN(C)CC2)cc1-c1nc2c(C(=O)NC)nn(Cc3cccnc3)c2c(=O)[nH]1 [Example 8]	4.1
